Measured values published in the supplement of paper PMC10307832.

What was measured:
Test in all cases: relative viability (nuclei count vs DMSO), 5 days (fraction); higher = more cells survive
MK-2206 + Luminespib = compound: NC1(c2ccc(-c3nc4ccn5c(=O)[nH]nc5c4cc3-c3ccccc3)cc2)CCC1 [MK-2206] + CCNC(=O)c1noc(-c2cc(C(C)C)c(O)cc2O)c1-c1ccc(CN2CCOCC2)cc1 [Luminespib] (partner 0.01 µM)
Summary of the method: (§1)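 Cells from lung cancer lines were seeded into 1536-well plates and, one day later, dosed by pin tool. Treatments were either a single drug or a fixed dose of an anchor drug with five library-drug doses (not always all listed) in √10 steps. After 5 days, nuclei were stained in a one-step fixation (final 0.05% Triton X-100, 1% formaldehyde, 1 ug/ml Hoechst) and counted on 4× images, and relative viability is the treated-to-vehicle nuclei ratio, as the median of duplicate plates.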

MK-2206 + Crizotinib = compound: NC1(c2ccc(-c3nc4ccn5c(=O)[nH]nc5c4cc3-c3ccccc3)cc2)CCC1 [MK-2206] + C[C@@H](Oc1cc(-c2cnn(C3CCNCC3)c2)cnc1N)c1c(Cl)ccc(F)c1Cl [Crizotinib] (partner 1 µM)
Summary of the method: as §1

Pictilisib + Vorinostat = compound: CS(=O)(=O)N1CCN(Cc2cc3nc(-c4cccc5[nH]ncc45)nc(N4CCOCC4)c3s2)CC1 [Pictilisib] + O=C(CCCCCCC(=O)Nc1ccccc1)NO [Vorinostat] (partner 1 µM)
Summary of the method: as §1

MK-2206 + Palbociclib = compound: NC1(c2ccc(-c3nc4ccn5c(=O)[nH]nc5c4cc3-c3ccccc3)cc2)CCC1 [MK-2206] + CC(=O)c1c(C)c2cnc(Nc3ccc(N4CCNCC4)cn3)nc2n(C2CCCC2)c1=O [Palbociclib] (partner 0.5 µM)
Summary of the method: as §1

MK-2206 + Linsitinib = compound: NC1(c2ccc(-c3nc4ccn5c(=O)[nH]nc5c4cc3-c3ccccc3)cc2)CCC1 [MK-2206] + C[C@]1(O)C[C@@H](c2nc(-c3ccc4ccc(-c5ccccc5)nc4c3)c3c(N)nccn32)C1 [Linsitinib] (partner 1 µM)
Summary of the method: as §1

Cell Line | relative viability (MK-2206 + Luminespib; first compound 0.01 µM) | relative viability (MK-2206 + Luminespib; first compound 0.03162 µM) | relative viability (MK-2206 + Luminespib; first compound 0.3162 µM) | relative viability (MK-2206 + Luminespib; first compound 1 µM) | relative viability (MK-2206 + Crizotinib; first compound 0.01 µM) | relative viability (MK-2206 + Crizotinib; first compound 0.03162 µM) | relative viability (MK-2206 + Crizotinib; first compound 0.3162 µM) | relative viability (MK-2206 + Crizotinib; first compound 1 µM) | relative viability (Pictilisib + Vorinostat; first compound 0.02 µM) | relative viability (Pictilisib + Vorinostat; first compound 0.06325 µM) | relative viability (Pictilisib + Vorinostat; first compound 0.6325 µM) | relative viability (Pictilisib + Vorinostat; first compound 2 µM) | relative viability (MK-2206 + Palbociclib; first compound 0.01 µM) | relative viability (MK-2206 + Palbociclib; first compound 0.03162 µM) | relative viability (MK-2206 + Palbociclib; first compound 0.3162 µM) | relative viability (MK-2206 + Palbociclib; first compound 1 µM) | relative viability (MK-2206 + Linsitinib; first compound 0.01 µM) | relative viability (MK-2206 + Linsitinib; first compound 0.03162 µM) | relative viability (MK-2206 + Linsitinib; first compound 0.3162 µM) | relative viability (MK-2206 + Linsitinib; first compound 1 µM)
NCI-H650 | 0.747 | 0.86 | 0.897 | 0.788 | 0.725 | 0.72 | 0.563 | 0.805 | 0.533 | 0.427 | 0.378 | 0.164 | 0.292 | 0.328 | 0.311 | 0.309 | 0.809 | 1.04 | 0.798 | 0.791
IA-LM | – | – | – | – | – | 0.867 | 0.807 | 0.819 | 0.917 | 0.97 | 0.881 | 0.373 | – | – | – | – | 0.55 | 0.632 | 0.597 | 0.409
A-427 | 0.882 | 0.947 | 0.975 | 0.901 | 0.896 | 0.824 | 0.742 | 0.893 | 0.84 | 0.874 | 0.95 | 0.853 | 0.512 | 0.585 | 0.507 | 0.524 | 1.13 | 1.09 | 1.14 | 1.17
NCI-H2347 | 0.46 | 0.399 | 0.426 | 0.721 | 0.733 | 0.761 | 0.708 | 0.67 | 0.669 | 0.607 | 0.416 | 0.321 | 0.418 | 0.415 | 0.39 | 0.3 | 0.906 | 1 | 0.848 | 0.952
NCI-H1793 | 0.186 | 0.178 | 0.164 | 0.174 | – | – | – | – | 0.712 | 0.724 | 0.379 | 0.243 | 0.277 | 0.329 | 0.272 | 0.252 | 0.81 | 0.886 | 0.641 | 0.675
NCI-H1651 | 0.865 | 0.888 | 0.808 | 0.965 | 0.878 | 0.875 | 0.892 | 0.884 | 0.519 | 0.551 | 0.538 | 0.344 | 0.506 | 0.536 | 0.486 | 0.482 | 0.906 | 0.915 | 0.874 | 0.937
HCC-78 | – | – | – | – | 0.348 | 0.33 | 0.289 | 0.286 | 0.393 | 0.384 | 0.322 | 0.257 | 0.426 | 0.489 | 0.496 | 0.398 | 0.505 | 0.576 | 0.388 | 0.316
NCI-H23 | 0.214 | 0.215 | 0.19 | 0.211 | 0.563 | 0.619 | 0.53 | 0.543 | 0.636 | 0.722 | 0.349 | 0.263 | 0.555 | 0.5 | 0.427 | 0.459 | 0.583 | 0.625 | 0.58 | 0.628
LOU-NH91 | 0.344 | 0.303 | 0.32 | 0.373 | 0.709 | 0.727 | 0.72 | 0.715 | 1.09 | 0.901 | 0.797 | 0.651 | 0.531 | 0.46 | 0.507 | 0.547 | 0.939 | 1.01 | 0.941 | 0.844
